Assay results published in patent US10059688B2, “Protein tyrosine kinase modulators and methods of use” (BETTA PHARMACEUTICALS CO., LTD., priority 2013, dated 2018).

How the values were obtained:
[1] = system: A549 (EGFR WT) NSCLC cells; experiment: Cell proliferation assay (MTS cell viability); format: cell-based; conditions: Homo sapiens, 72 h; A549 cells, 3 days of exposure, MTS
Description: (§1) Effects of test compounds on in vitro proliferation were measured by MTS cell viability assay.
A549 cells were maintained in Ham's F12K medium (Gibco) supplemented with 10% FBS, 100 units/mL penicillin, 100 units/mL streptomycin, and 2 mM glutamine.
(§2) Prepare test compounds in each well with a final medium volume of 200 μl;
Incubate for 3 days of exposure;
(§3) Prepare reagents following the instructions in the Cell Proliferation Assay kit (Promega);
(§4) Change to serum-free medium with a final volume of 100 l/well. Prepare a set of wells with medium only for background subtraction;
(§5) Add 20 μl MTS solution containing PMS to each well (final concentration of MTS will be 0.33 mg/ml);
(§6) Incubate 1 to 4 hours at 37° C. in a humidified, 5% CO2 atmosphere.
(§7) Record absorbance at 490 nm using VICTOR™ X5 plate reader (PerkinElmer).
(§8) All experimental points were set up in three wells and all experiments were repeated at least three times.

[2] = system: H1975 (EGFR L858R/T790M) NSCLC cells; experiment: Cell proliferation assay (MTS cell viability); format: cell-based; conditions: Homo sapiens, NCI-H1975, 72 h; H1975 cells, 3 days of exposure, MTS
[3] = system: HCC827 (EGFR Del) NSCLC cells; experiment: Cell proliferation assay (MTS cell viability); format: cell-based; conditions: Homo sapiens, 72 h; HCC827 cells, 3 days of exposure, MTS
Description: as §1, §2
Incubate for 3 days of exposure;
as §3, §4, §5, §6, §7, §8

EGFR (T790M, L858R) (h) = EGFR (T790M, L858R) (h) (Homo sapiens (Human), UniProt P00533, L858R/T790M); experiment: Kinase assay, single dose inhibition (Millipore, 33P-ATP filter binding); format: biochemical; conditions: 0.1 μM test compound, 10 μM ATP; remaining activity relative to DMSO control = 100%
Description: (§9) Assay conditions included 10 μM ATP and 100 nM test compounds.
(§10) All reactions are initiated by the addition of the MgATP mix. After incubation for 40 minutes at room temperature, the reaction is stopped by the addition of 3% phosphoric acid solution. 10 μL of the reaction is then spotted onto a P30 filtermat and washed three times for 5 minutes in 75 mM phosphoric acid and once in methanol prior to drying and scintillation counting. This assay is performed by Millipore. The experiment is carried out in duplicate. The value for the control sample (DMSO) was set to 100%, and the values for the compound-treated samples were expressed as activity relative to the control sample.

EGFR (h) = EGFR (h) (Homo sapiens (Human), UniProt P00533); experiment: as above; format: biochemical; conditions: 0.1 μM test compound, 10 μM ATP; remaining activity relative to DMSO control = 100%
Description: as §9, §10

EGFR (L858R) (h) = EGFR (L858R) (h) (Homo sapiens (Human), UniProt P00533, L858R); experiment: as above; format: biochemical; conditions: 0.1 μM test compound, 10 μM ATP; remaining activity relative to DMSO control = 100%
Description: as §9, §10

ALK (h) = ALK (h) (Homo sapiens (Human), UniProt Q9UM73); experiment: as above; format: biochemical; conditions: 0.1 μM test compound, 10 μM ATP, remaining activity relative to DMSO control = 100%
ALK (h), sequence (Q9UM73 19-1620): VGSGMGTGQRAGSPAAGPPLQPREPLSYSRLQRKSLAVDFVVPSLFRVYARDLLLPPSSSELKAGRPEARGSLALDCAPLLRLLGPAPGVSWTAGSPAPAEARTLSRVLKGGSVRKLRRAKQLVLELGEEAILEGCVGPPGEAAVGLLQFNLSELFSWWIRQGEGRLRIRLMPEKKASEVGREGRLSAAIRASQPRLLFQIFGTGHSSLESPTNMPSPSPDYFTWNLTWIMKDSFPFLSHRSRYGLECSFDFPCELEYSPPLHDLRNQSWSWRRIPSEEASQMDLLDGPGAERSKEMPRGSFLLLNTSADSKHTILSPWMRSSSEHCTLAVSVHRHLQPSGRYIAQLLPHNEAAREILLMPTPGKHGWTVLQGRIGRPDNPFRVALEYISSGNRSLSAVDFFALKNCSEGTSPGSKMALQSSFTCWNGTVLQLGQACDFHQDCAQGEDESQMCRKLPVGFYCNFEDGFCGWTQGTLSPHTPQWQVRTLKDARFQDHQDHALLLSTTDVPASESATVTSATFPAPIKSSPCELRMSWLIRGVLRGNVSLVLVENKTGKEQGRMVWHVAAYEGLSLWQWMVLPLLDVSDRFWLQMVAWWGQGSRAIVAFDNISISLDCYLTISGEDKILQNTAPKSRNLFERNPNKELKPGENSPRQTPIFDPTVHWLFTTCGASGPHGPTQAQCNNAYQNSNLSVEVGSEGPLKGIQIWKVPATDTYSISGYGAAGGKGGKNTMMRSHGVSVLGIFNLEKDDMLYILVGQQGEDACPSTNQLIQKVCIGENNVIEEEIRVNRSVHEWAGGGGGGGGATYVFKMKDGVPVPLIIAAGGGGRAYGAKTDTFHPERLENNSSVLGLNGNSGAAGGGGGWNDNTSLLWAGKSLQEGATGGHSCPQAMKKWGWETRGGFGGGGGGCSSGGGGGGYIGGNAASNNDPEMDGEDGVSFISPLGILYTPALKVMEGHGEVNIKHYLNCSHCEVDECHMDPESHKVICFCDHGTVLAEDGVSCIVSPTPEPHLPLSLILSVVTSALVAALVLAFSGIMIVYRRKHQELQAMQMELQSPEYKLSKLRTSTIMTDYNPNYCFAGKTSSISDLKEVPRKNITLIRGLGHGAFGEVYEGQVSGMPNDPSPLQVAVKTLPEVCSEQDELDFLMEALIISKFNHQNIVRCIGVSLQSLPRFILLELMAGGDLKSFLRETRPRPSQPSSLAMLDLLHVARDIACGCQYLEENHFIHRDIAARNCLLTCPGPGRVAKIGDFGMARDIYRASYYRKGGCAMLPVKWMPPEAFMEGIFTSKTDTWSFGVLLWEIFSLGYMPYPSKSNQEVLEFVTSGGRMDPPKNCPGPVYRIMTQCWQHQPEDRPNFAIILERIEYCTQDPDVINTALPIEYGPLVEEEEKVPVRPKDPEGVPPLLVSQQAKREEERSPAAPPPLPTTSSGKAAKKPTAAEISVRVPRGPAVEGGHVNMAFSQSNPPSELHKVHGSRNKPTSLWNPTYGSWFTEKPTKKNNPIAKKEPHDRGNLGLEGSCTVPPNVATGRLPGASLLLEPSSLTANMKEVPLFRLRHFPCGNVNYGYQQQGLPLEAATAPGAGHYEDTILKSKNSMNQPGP

EGFR (T790M) (h) = EGFR (T790M) (h) (Homo sapiens (Human), UniProt P00533, T790M); experiment: as above; format: biochemical; conditions: 0.1 μM test compound, 10 μM ATP; remaining activity relative to DMSO control = 100%

Work on `COc1cc(N2CCC(N(C)C)CC2)ccc1Nc1ncc(Cl)c(Nc2ccccc2C(=O)C(=O)NO)n1` [Example 3, 2-(2-(5-chloro-2-(4-(4-(dimethylamino)piperidin-1-yl)-2-methoxyphenylamino)pyrimidin-4-ylamino)phenyl)-N-hydroxy-2-oxoacetamide] yielded an IC50 [1] of over 3 µM, an IC50 [2] of 0.84 µM and an IC50 [3] of 0.94 µM.
Work on `CNC(=O)C(=O)c1ccccc1Nc1nc(Nc2ccc(N3CCC(N(C)C)CC3)cc2OC)ncc1Cl` [Example 16, 2-(2-((5-chloro-2-((4-(4-(dimethylamino)piperidin-1-yl)-2-methoxyphenyl)amino)pyrimidin-4-yl)amino)phenyl)-N-methyl-2-oxoacetamide] yielded an IC50 [1] of over 3 µM, an IC50 [2] of 1.13 µM and an IC50 [3] of 0.9 µM.
With `COc1cc(N2CCN(C(C)=O)CC2)ccc1Nc1ncc(Cl)c(Nc2ccccc2C(=O)C(=O)N2CCOCC2)n1` [Example 42, 1-(2-(2-(4-(4-acetylpiperazin-1-yl)-2-methoxyphenylamino)-5-chloropyrimidin-4-ylamino)phenyl)-2-morpholinoethane-1,2-dione] the IC50 [1] was over 3 µM, the IC50 [2] was over 3 µM and the IC50 [3] was over 3 µM.
In the case of `COc1cc(N2CCN(C)CC2)ccc1Nc1ncc(C(F)(F)F)c(Nc2ccccc2C(=O)C(=O)N2CCOCC2)n1` [Example 43, 1-(2-(2-(2-methoxy-4-(4-methylpiperazin-1-yl)phenylamino)-5-(trifluoromethyl)pyrimidin-4-ylamino)phenyl)-2-morpholinoethane-1,2-dione], the IC50 [1] is reported as over 3 µM, the IC50 [2] is reported as over 3 µM and the IC50 [3] is reported as over 3 µM.
`COc1cc(N2CCN(C)CC2)ccc1Nc1ncc(Cl)c(Nc2ccccc2C(=O)C(=O)N2CCOCC2)n1` [Example 44, 1-(2-(5-chloro-2-(2-methoxy-4-(4-methylpiperazin-1-yl)phenylamino)pyrimidin-4-ylamino)phenyl)-2-morpholinoethane-1,2-dione] gave an IC50 [1] of over 3 µM, an IC50 [2] of 1.23 µM and an IC50 [3] of 2.36 µM.
Work on `COc1cc(N2CCC(N(C)C)CC2)ccc1Nc1ncc(C(F)(F)F)c(Nc2ccccc2C(=O)C(=O)N2CCOCC2)n1` [Example 45, 1-(2-(2-(4-(4-(dimethylamino)piperidin-1-yl)-2-methoxyphenylamino)-5-(trifluoromethyl)pyrimidin-4-ylamino)phenyl)-2-morpholinoethane-1,2-dione] yielded an IC50 [1] of over 3 µM, an IC50 [2] of over 3 µM and an IC50 [3] of over 3 µM.
Compound `COc1cc(N2CCN(C)CC2)ccc1Nc1ncc(Cl)c(Nc2ccccc2C(=O)C(=O)N(C)C)n1` [Example 46, 2-(2-(5-chloro-2-(2-methoxy-4-(4-methylpiperazin-1-yl)phenylamino)pyrimidin-4-ylamino)phenyl)-N,N-dimethyl-2-oxoacetamide] has an IC50 [1] of over 3 µM, an IC50 [2] of 0.81 µM and an IC50 [3] of 1.63 µM.
Compound `CNC(=O)C(=O)c1ccccc1Nc1nc(Nc2ccc(N3CCN(C)CC3)cc2OC)ncc1Cl` [Example 47, 2-(2-(5-chloro-2-(2-methoxy-4-(4-methylpiperazin-1-yl)phenylamino)pyrimidin-4-ylamino)phenyl)-N-methyl-2-oxoacetamide] has an IC50 [1] of over 3 µM, an IC50 [2] of over 3 µM and an IC50 [3] of over 3 µM.
In the case of `C=CC(=O)Nc1cccc(Nc2ncc(Cl)c(Nc3ccccc3C(=O)C(=O)NC)n2)c1` [Example 57, N-(3-(5-chloro-4-(2-(2-(methylamino)-2-oxoacetyl)phenylamino)pyrimidin-2-ylamino)phenyl)acrylamide], the IC50 [1] is reported as over 3 µM, the IC50 [2] is reported as 0.1 µM and the IC50 [3] is reported as 0.27 µM.
For `C=CC(=O)Nc1cccc(Nc2ncc(C(F)(F)F)c(Nc3ccccc3C(=O)C(N)=O)n2)c1` [Example 58, N-(3-(4-(2-(2-amino-2-oxoacetyl)phenylamino)-5-(trifluoromethyl)pyrimidin-2-ylamino)phenyl)acrylamide], the IC50 [1] was 0.37 µM, the IC50 [2] was 0.98 µM and the IC50 [3] was 0.53 µM.
Compound `C=CC(=O)N1CCC(NC(=O)C(=O)c2ccccc2Nc2nc(Nc3ccc(F)c(OC)c3)ncc2Cl)CC1` [Example 59, N-(1-acryloylpiperidin-4-yl)-2-(2-(5-chloro-2-(4-fluoro-3-methoxyphenylamino)pyrimidin-4-ylamino)phenyl)-2-oxoacetamide] has an IC50 [1] of over 3 µM, an IC50 [2] of 0.19 µM and an IC50 [3] of over 3 µM.
`CNC(=O)C(=O)c1ccccc1Nc1nc(Nc2ccc(N3CCN(C)CC3)c(OC)c2)ncc1Cl` [Example 60, 2-(2-(5-chloro-2-(3-methoxy-4-(4-methylpiperazin-1-yl)phenylamino)pyrimidin-4-ylamino)phenyl)-N-methyl-2-oxoacetamide] showed an IC50 [1] of 2.08 µM, an IC50 [2] of 0.15 µM and an IC50 [3] of 0.87 µM.
For `COc1cc(Nc2ncc(Cl)c(Nc3ccccc3C(=O)C(=O)N(C)C)n2)ccc1F` [Example 62, 2-(2-(5-chloro-2-(4-fluoro-3-methoxyphenylamino)pyrimidin-4-ylamino)phenyl)-N,N-dimethyl-2-oxoacetamide], the IC50 [1] was over 3 µM, the IC50 [2] was over 3 µM and the IC50 [3] was 2.33 µM.
Compound `CNC(=O)C(=O)c1ccccc1Nc1nc(Nc2ccc(F)c(OC)c2)ncc1Cl` [Example 63, 2-(2-(5-chloro-2-(4-fluoro-3-methoxyphenylamino)pyrimidin-4-ylamino)phenyl)-N-methyl-2-oxoacetamide] has an IC50 [1] of over 3 µM, an IC50 [2] of 0.64 µM and an IC50 [3] of over 3 µM.
`C=CC(=O)Nc1cc(Nc2ncc(Cl)c(Nc3ccccc3C(=O)C(=O)NC)n2)c(F)cc1OC` [Example 68, N-(5-(5-chloro-4-(2-(2-(methylamino)-2-oxoacetyl)phenylamino)pyrimidin-2-ylamino)-4-fluoro-2-methoxyphenyl)acrylamide] gave an IC50 [1] of over 3 µM, an IC50 [2] of 0.65 µM and an IC50 [3] of 1.2 µM.
`C=C(CN(C)CCN(C)C)C(=O)Nc1cccc(Nc2ncc(Cl)c(Nc3ccccc3C(=O)C(=O)N(C)C)n2)c1` [Example 125, N-(3-(5-chloro-4-(2-(2-(dimethylamino)-2-oxoacetyl)phenylamino)pyrimidin-2-ylamino)phenyl)-2-(((2-(dimethylamino)ethyl)(methyl)amino)methyl)acrylamide] was tested, and the “Activity (control) % EGFR (T790M, L858R) (h)” value (EGFR (T790M, L858R) (h)) was 2%, the “Activity (control) % EGFR (h)” value (EGFR (h)) was 106% and the “Activity (control) % EGFR (L858R) (h)” value (EGFR (L858R) (h)) was 54%. For the same compound, the “Activity (control) % ALK (h)” value (ALK (h)) was 20% and the “Activity (control) % EGFR (T790M) (h)” value (EGFR (T790M) (h)) was 18%.
`C=C(CN1CCCCC1)C(=O)Nc1cc(Nc2ncc(Cl)c(Nc3ccccc3C(=O)C(=O)N(C)C)n2)ccc1N1CCOCC1` [Example 129, N-(5-(5-chloro-4-(2-(2-(dimethylamino)-2-oxoactyl)phenylamino)pyrimidin-2-ylamino)-2-morpholinophenyl)-2-(piperidin-1-ylmethyl)acrylamide] was tested, and the “Activity (control) % EGFR (T790M, L858R) (h)” value (EGFR (T790M, L858R) (h)) was 3%, the “Activity (control) % EGFR (h)” value (EGFR (h)) was 104% and the “Activity (control) % EGFR (L858R) (h)” value (EGFR (L858R) (h)) was 75%. The “Activity (control) % ALK (h)” value (ALK (h)) was 8% and the “Activity (control) % EGFR (T790M) (h)” value (EGFR (T790M) (h)) was 24%.
`CCN(CC)C(=O)C(=O)c1ccccc1Nc1nc(Nc2ccc(N3CCN(C)CC3)c(OC)c2)ncc1Cl` [Example 130, 2-(2-(5-chloro-2-(3-methoxy-4-(4-methylpiperazin-1-yl)phenylamino)pyrimidin-4-ylamino)phenyl)-N,N-diethyl-2-oxoacetamide] was tested, and the “Activity (control) % EGFR (T790M, L858R) (h)” value (EGFR (T790M, L858R) (h)) was 22%, the “Activity (control) % EGFR (h)” value (EGFR (h)) was 113% and the “Activity (control) % EGFR (L858R) (h)” value (EGFR (L858R) (h)) was 98%. For the same compound, the “Activity (control) % ALK (h)” value (ALK (h)) was 13% and the “Activity (control) % EGFR (T790M) (h)” value (EGFR (T790M) (h)) was 84%.
`C=CC(=O)Nc1cc(Nc2ncc(Cl)c(Nc3ccccc3C(=O)C(=O)N(CC)CC)n2)ccc1OC` [Example 132, N-(5-(5-chloro-4-(2-(2-(diethylamino)-2-oxoactyl)phenylamino)pyrimidin-2-ylamino)-2-methoxyphenyl)acrylamide] was tested, and the “Activity (control) % EGFR (T790M, L858R) (h)” value (EGFR (T790M, L858R) (h)) was 30%, the “Activity (control) % EGFR (h)” value (EGFR (h)) was 103% and the “Activity (control) % EGFR (L858R) (h)” value (EGFR (L858R) (h)) was 114%. For the same compound, the “Activity (control) % ALK (h)” value (ALK (h)) was 16% and the “Activity (control) % EGFR (T790M) (h)” value (EGFR (T790M) (h)) was 77%.
With `C=CC(=O)Nc1ccc(N2CCN(C)CC2)c(Nc2ncc(Cl)c(Nc3ccccc3C(=O)C(=O)N(C)C)n2)c1` [Example 135, N-(3-(5-chloro-4-(2-(2-(dimethylamino)-2-oxoacetyl)phenylamino)pyrimidin-2-ylamino)-4-(4-methylpiperazin-1-yl)phenyl)acrylamide] the “Activity (control) % EGFR (T790M, L858R) (h)” value (EGFR (T790M, L858R) (h)) was 95%, the “Activity (control) % EGFR (h)” value (EGFR (h)) was 106% and the “Activity (control) % EGFR (L858R) (h)” value (EGFR (L858R) (h)) was 103%. For the same compound, the “Activity (control) % ALK (h)” value (ALK (h)) was 80% and the “Activity (control) % EGFR (T790M) (h)” value (EGFR (T790M) (h)) was 96%.
For `C=CC(=O)Nc1ccc(OC2CCOC2)c(Nc2ncc(Cl)c(Nc3ccccc3C(=O)C(=O)N(C)C)n2)c1` (stereo not drawn) [Example 136, N-(3-(5-chloro-4-(2-(2-(dimethylamino)-2-oxoactyl)phenylamino)pyrimidin-2-ylamino)-4-(tetrahydrofuran-3-yloxy)phenyl)acrylamide], the “Activity (control) % EGFR (T790M, L858R) (h)” value (EGFR (T790M, L858R) (h)) was 54%, the “Activity (control) % EGFR (h)” value (EGFR (h)) was 99% and the “Activity (control) % EGFR (L858R) (h)” value (EGFR (L858R) (h)) was 104%. For the same compound, the remaining activity at 0.1 µM (ALK (h); 40 min) was 29% and the “Activity (control) % EGFR (T790M) (h)” value (EGFR (T790M) (h)) was 92%.
With `C=CC(=O)Nc1cccc(Oc2nc(Nc3ccc(N4CCN(C)CC4)cc3OC)ncc2Cl)c1` [WZ4002, reference compound] the IC50 [1] was over 3 µM.
With “N-(5-(5-chloro-4-(2-(2-(dimethylamino)-2-oxoactyl)phenylamino)pyrimidin-2-ylamino)-2-(tetrahydrofuran-3-yloxy)phenyl)acrylamide [Example 124]” the “Activity (control) % EGFR (T790M, L858R) (h)” value (EGFR (T790M, L858R) (h)) was 20%, the “Activity (control) % EGFR (h)” value (EGFR (h)) was 109% and the “Activity (control) % EGFR (L858R) (h)” value (EGFR (L858R) (h)) was 100%. For the same compound, the “Activity (control) % ALK (h)” value (ALK (h)) was 16% and the “Activity (control) % EGFR (T790M) (h)” value (EGFR (T790M) (h)) was 78%.
